Target: T1, PRMT8 (Homo sapiens, UniProt Q9NR22)
T1 construct: Full-length human PRMT8 (NM_019854.4) isoform 1 transcript clone; made in house; host or cells: E. coli BL21(DE3) Gold
Assay: PRMT8 Biochemical Assay (3H-SAM Flashplate, peptide substrate)
Conditions: 30 min preincubation, room temperature
Source text: S-adenosylmethionine (SAM), S-adenosylhomocysteine (SAH), bicine, Tween20, dimethylsulfoxide (DMSO), bovine skin gelatin (BSG), isopropyl-β-D-thiogalactopyranoside (IPTG), and Tris(2-carboxyethyl)phosphine hydrochloride solution (TCEP) were purchased from Sigma-Aldrich at the highest level of purity possible. ^3H-SAM was purchase from American Radiolabeled Chemicals with a specific activity of 80 Ci/mmol. 384-well streptavidin Flashplates were purchased from PerkinElmer.
Peptide representative of human histone H4 residues 31-45 was synthesized with an N-terminal linker-affinity tag motif and a C-terminal amide cap by 21st Century Biochemicals. The peptide was purified by high-performance liquid chromatography (HPLC) to greater than 95% purity and confirmed by liquid chromatography mass spectrometry (LC-MS). The sequence was Biot-Ahx-[…]-amide (SEQ ID NO.:8).
The resulting construct encodes an N-terminal GST tag and a thrombin cleavage sequence ([…] […] […] […]) (SEQ ID NO.:9) fused directly to Met 1 of PRMT8.
E. coli (BL21(DE3) Gold, Stratagene) made competent by the CaCl2 method were transformed with the PRMT8 construct and ampicillin selection. Protein over-expression was accomplished by growing the PRMT8 expressing E. coli clone and inducing expression with 0.3 mM IPTG at 16° C. The culture was grown for 12 hours, harvested by centrifugation, and stored at −80° C. for purification.
The column was washed with 50 mM phosphate buffer, 100 mM NaCl, 5% glycerol, 5 mM (3-mercaptoethanol, pH 7.8 and PRMT8 was eluted by 100 mM phosphate in the same buffer. Protein was concentrated and buffer was exchanged to 50 mM Tris, 300 mM NaCl, 10% glycerol, 5 mM β-mercaptoethanol, pH 7.8 by ultrafiltration. The purity of recovered protein was 89%.
General Procedure for PRMT8 Enzyme Assays on Peptide Substrates.
The assays were all performed in a buffer consisting of 20 mM Bicine (pH=7.6), 1 mM TCEP, 0.005% BSG, and 0.002% Tween 20, prepared on the day of use. Compounds in 100% DMSO (1 ul) were spotted into a polypropylene 384-well V-bottom plates (Greiner) using a Platemate Plus outfitted with a 384-channel head (Thermo Scientific). DMSO (1 ul) was added to Columns 11, 12, 23, 24, rows A-H for the maximum signal control and 1 ul of SAH, a known product and inhibitor of PRMT8, was added to columns 11, 12, 23, 24, rows I-P for the minimum signal control. A cocktail (40 ul) containing the PRMT8 enzyme was added by Multidrop Combi (Thermo-Fisher). The compounds were allowed to incubate with PRMT8 for 30 min at room temperature, then a cocktail (10 ul) containing ^3H-SAM and peptide was added to initiate the reaction (final volume=51 ul). The final concentrations of the components were as follows: PRMT8 was 1.5 nM, ^3H-SAM was 50 nM, non-radiolabeled SAM was 550 nM, peptide was 150 nM, SAH in the minimum signal control wells was 1 mM, and the DMSO concentration was 2%. The assays were stopped by the addition of non-radiolabeled SAM (10 ul) to a final concentration of 400 uM, which dilutes the ^3H-SAM to a level where its incorporation into the peptide substrate is no longer detectable. 50 ul of the reaction in the 384-well polypropylene plate was then transferred to a 384-well Flashplate and the biotinylated peptides were allowed to bind to the streptavidin surface for at least 1 hour before being washed once with 0.1% Tween20 in a Biotek ELx405 plate washer. The plates were then read in a PerkinElmer TopCount plate reader to measure the quantity of ^3H-labeled peptide bound to the Flashplate surface, measured as disintegrations per minute (dpm) or alternatively, referred to as counts per minute (cpm).
Where dpm=disintegrations per minute, cmpd=signal in assay well, and min and max are the respective minimum and maximum signal controls.
Where top and bottom are the normally allowed to float, but may be fixed at 100 or 0 respectively in a 3-parameter fit. […]

T1 sequence (Q9NR22 whole entry, canonical isoform): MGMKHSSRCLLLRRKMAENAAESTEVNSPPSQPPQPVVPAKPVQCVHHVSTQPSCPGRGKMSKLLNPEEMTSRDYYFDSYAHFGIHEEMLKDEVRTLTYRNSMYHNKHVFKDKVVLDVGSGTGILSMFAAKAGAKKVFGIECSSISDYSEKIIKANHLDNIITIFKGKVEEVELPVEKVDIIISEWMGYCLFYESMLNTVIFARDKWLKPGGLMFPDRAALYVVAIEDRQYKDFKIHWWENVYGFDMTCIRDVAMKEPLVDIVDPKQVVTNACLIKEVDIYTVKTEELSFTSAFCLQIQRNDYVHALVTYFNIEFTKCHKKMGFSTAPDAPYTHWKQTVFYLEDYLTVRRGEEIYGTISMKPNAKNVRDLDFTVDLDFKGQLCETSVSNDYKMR

In the case of `CN(CCN)Cc1c[nH]nc1-c1ccsc1` [Compound 3], the IC50 is reported as 1.01 to 3 µM.
For `CN(CCN)Cc1c[nH]nc1-c1cncnc1` [Compound 4], the IC50 was 1.01 to 3 µM.
`CN(CCN)Cc1c[nH]nc1-c1cccs1` [Compound 5] gave an IC50 of 3.01 to 10 µM.
Compound `CN(CCN)Cc1c[nH]nc1-c1ccco1` [Compound 6] has an IC50 of 3.01 to 10 µM.
Compound `CN(CCN)Cc1c[nH]nc1-c1ccoc1` [Compound 7] has an IC50 of 1.01 to 3 µM.
`CN(CCN)Cc1c[nH]nc1-c1cnn(C)c1` [Compound 8] showed an IC50 of 3.01 to 10 µM.
Work on `CN(CCN)Cc1c[nH]nc1-c1ccc2scnc2c1` [Compound 9] yielded an IC50 of 0.101 to 1 µM.
Compound `Cc1noc(C)c1-c1n[nH]cc1CN(C)CCN` [Compound 10] has an IC50 of no less than 10 µM.
In the case of `COc1ncc(-c2n[nH]cc2CN(C)CCN)cn1` [Compound 11], the IC50 is reported as 1.01 to 3 µM.
`CN(CCN)Cc1c[nH]nc1-c1cn[nH]c1` [Compound 12] gave an IC50 of 1.01 to 3 µM.
`CN(CCN)Cc1c[nH]nc1-c1cnc2[nH]ccc2c1` [Compound 13] was tested, and the IC50 was 0.101 to 1 µM.
In the case of `CN(CCN)Cc1c[nH]nc1-c1cc[nH]n1` [Compound 14], the IC50 is reported as no less than 10 µM.
`CN(CCN)Cc1c[nH]nc1-c1ccnn1C` [Compound 15] showed an IC50 of 3.01 to 10 µM.
In the case of `CCn1cc(-c2n[nH]cc2CN(C)CCN)cn1` [Compound 16], the IC50 is reported as 0.101 to 1 µM.
Work on `CN(CCN)Cc1c[nH]nc1-c1cnn(-c2ccccc2)c1` [Compound 17] yielded an IC50 of 0.101 to 1 µM.
In the case of `CN(CCN)Cc1c[nH]nc1-c1cnn(CCO)c1` [Compound 18], the IC50 is reported as 1.01 to 3 µM.
For `CN(CCN)Cc1c[nH]nc1-c1ccc2cnn(C)c2c1` [Compound 19, N^1-methyl-N^1-((3-(1-methyl-1H-indazol-6-yl)-1H-pyrazol-4-yl)methyl)ethane-1,2-diamine], the IC50 was 0.101 to 1 µM.
For `CN(CCN)Cc1c[nH]nc1-c1ccc2ncnn2c1` [Compound 20], the IC50 was 1.01 to 3 µM.
Work on `CN(CCN)Cc1c[nH]nc1-c1ccc2nccn2c1` [Compound 21, N^1-((3-(imidazo[1,2-a]pyridin-6-yl)-1H-pyrazol-4-yl)methyl)-N^1-methylethane-1,2-diamine] yielded an IC50 of 0.101 to 1 µM.
With `CC(C)n1cc(-c2n[nH]cc2CN(C)CCN)cn1` [Compound 22] the IC50 was 0.101 to 1 µM.
In the case of `CC(C)Cn1cc(-c2n[nH]cc2CN(C)CCN)cn1` [Compound 23, N^1-((2′-isobutyl-3,4′-bi(1H-pyrazol)-4-yl)methyl)-N^1-methylethane-1,2-diamine], the IC50 is reported as 0.101 to 1 µM.
With `CN(CCN)Cc1c[nH]nc1-c1cnn(Cc2ccccc2)c1` [Compound 24, N^1-((1′-benzyl-3,4′-bi(1H-pyrazol)-4-yl)methyl)-N^1-methylethane-1,2-diamine] the IC50 was 0.101 to 1 µM.
Compound `CN(CCN)Cc1c[nH]nc1-c1ccc2[nH]ncc2c1` [Compound 27, N^1-((3-(1H-indazol-5-yl)-1H-pyrazol-4-yl)methyl)-N^1-methylethane-1,2-diamine] has an IC50 of 0.101 to 1 µM.
Work on `CN(CCN)Cc1c[nH]nc1-c1cnc(C2CC2)nc1` [Compound 28] yielded an IC50 of 1.01 to 3 µM.
Work on `CN(CCN)Cc1c[nH]nc1-c1ccc[nH]1` [Compound 29] yielded an IC50 of 3.01 to 10 µM.
In the case of `CN(CCN)Cc1c[nH]nc1-c1cccc2[nH]ncc12` [Compound 30], the IC50 is reported as 3.01 to 10 µM.

Source: patent publication US9630961B2, “Arginine methyltransferase inhibitors and uses thereof” (Epizyme, Inc., priority 2013, dated 2017)
